# Source: US8389557B2, “Triazole derivatives useful as Axl inhibitors” (Rigel Pharmaceuticals, Inc., priority 2005, dated 2013)
# Molecular target: T1, Axl (Homo sapiens, UniProt P30530)
# T1 construct: endogenous in cells; host or cells: HeLa cells
# T1 sequence (P30530 26-894): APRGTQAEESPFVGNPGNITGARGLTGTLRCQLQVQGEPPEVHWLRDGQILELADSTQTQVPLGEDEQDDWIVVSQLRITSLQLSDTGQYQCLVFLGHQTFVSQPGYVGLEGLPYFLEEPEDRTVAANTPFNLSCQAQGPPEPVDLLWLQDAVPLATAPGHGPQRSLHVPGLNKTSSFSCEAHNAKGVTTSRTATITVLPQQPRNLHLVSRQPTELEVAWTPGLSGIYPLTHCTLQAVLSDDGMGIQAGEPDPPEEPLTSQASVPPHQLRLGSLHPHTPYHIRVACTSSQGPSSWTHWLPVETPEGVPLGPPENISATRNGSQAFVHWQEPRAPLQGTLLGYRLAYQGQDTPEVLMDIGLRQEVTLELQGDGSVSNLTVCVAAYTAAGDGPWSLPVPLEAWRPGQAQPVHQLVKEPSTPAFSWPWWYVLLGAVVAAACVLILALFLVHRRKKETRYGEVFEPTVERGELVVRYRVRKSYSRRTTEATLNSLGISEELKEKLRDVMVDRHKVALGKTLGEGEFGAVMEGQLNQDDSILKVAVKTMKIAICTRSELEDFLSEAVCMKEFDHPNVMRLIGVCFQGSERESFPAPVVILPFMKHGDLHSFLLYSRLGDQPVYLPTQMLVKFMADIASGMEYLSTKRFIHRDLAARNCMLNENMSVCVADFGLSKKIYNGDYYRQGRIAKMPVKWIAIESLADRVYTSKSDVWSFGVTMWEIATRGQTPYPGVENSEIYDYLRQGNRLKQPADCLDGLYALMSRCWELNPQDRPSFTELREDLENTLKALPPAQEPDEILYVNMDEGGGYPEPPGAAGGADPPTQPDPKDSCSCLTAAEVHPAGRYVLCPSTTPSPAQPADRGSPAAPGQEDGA
# Assay: Phospho-Akt in-cell Western assay (inhibition of Axl activity)
# Assay type: cell-based
# In short: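 HeLa cells on poly-L-lysine, starved 24 h in 0.5% FCS DMEM with Axl/Fc 500 ng/mL, pre-treated with compound 1 h at 37° C. Axl stimulated 5 min by anti-Axl/anti-mouse antibody cross-linking. Fixed cells probed with anti-phospho-Akt and HRP secondary, chemiluminescence read.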
# [1] = inhibition of Axl activity, phospho-Akt in-cell Western assay, Table 1
# [2] = Table 3, Hela cells, Axl antibody cross-linking stimulation, phospho-Akt chemiluminescence
# [3] = Table 7, Hela cells, Axl antibody cross-linking stimulation, phospho-Akt chemiluminescence
# [4] = Table 6, Hela cells, Axl antibody cross-linking stimulation, phospho-Akt chemiluminescence
Structure (SMILES),IC50 [1] [nM],also measured
"COc1cc(Nc2nc(N)n(C(=O)c3ccc(OC(C)(C)C)cc3)n2)ccc1OCCN1CCCC1 [compound 317, 5-amino-1-(4-(tert-butoxy)phenyl)carbonyl-3-[3-methoxy-4-[2-(pyrrolidin-1-yl)ethoxy]phenylamino]-1H-1,2,4-triazole]",< 1000,
"COc1cc(Nc2nc(N)n(C(=O)c3ccc4cc[nH]c4c3)n2)ccc1OCCN1CCCC1 [compound 318, 5-amino-1-(1H-indol-6-yl)carbonyl-3-[3-methoxy-4-[2-(pyrrolidin-1-yl)ethoxy]phenylamino]-1H-1,2,4-triazole]",,IC50 [2]: < 1000 nM
"COc1cc(Nc2nc(N)n(C(=O)c3ccc(-c4csnn4)cc3)n2)ccc1OCCN1CCCC1 [compound 319, 5-amino-1-(4-(1,2,3-thiadiazol-4-yl)phenyl)carbonyl-3-[3-methoxy-4-[2-(pyrrolidin-1-yl)ethoxy]phenylamino]-1H-1,2,4-triazole]",< 1000,
"CC(C)(C)Oc1ccc(C(=O)n2nc(Nc3ccc(OCCN4CCCCCC4)cc3)nc2N)cc1 [compound 322, 5-amino-1-(4-(tert-butoxy)phenyl)carbonyl-3-[4-[2-(azepan-1-yl)ethoxy]phenylamino]-1H-1,2,4-triazole]",< 1000,
"Nc1nc(Nc2ccc(OCCN3CCCCCC3)cc2)nn1C(=O)c1ccc2cc[nH]c2c1 [compound 323, 5-amino-1-(1H-indol-6-yl)carbonyl-3-[4-[2-(azepan-1-yl)ethoxy]phenylamino]-1H-1,2,4-triazole]",,IC50 [2]: < 1000 nM
"Nc1nc(Nc2ccc(OCCN3CCCC3)cc2)nn1C(=S)Nc1c(F)cc(F)cc1F [compound 325, 5-amino-N-(2,4,6-trifluorophenyl)-3-[4-[2-(pyrrolidin-1-yl)ethoxy]phenylamino]-1H-1,2,4-triazole-1-carbothioamide]",,IC50 [3]: 1000 to 10000 nM
"Nc1nc(Nc2ccc(OCCN3CCCC3)cc2)nn1C(=S)Nc1c(F)cccc1F [compound 326, 5-amino-N-(2,6-difluorophenyl)-3-[4-[2-(pyrrolidin-1-yl)ethoxy]phenylamino]-1H-1,2,4-triazole-1-carbothioamide]",,IC50 [3]: < 1000 nM
"Nc1nc(Nc2ccc(OCCN3CCCC3)cc2)nn1C(=O)c1cccc(N2CCOCC2)c1 [compound 331, 5-amino-1-(3-(morpholin-4-yl)phenyl)carbonyl-3-[4-[2-(pyrrolidin-1-yl)ethoxy]phenylamino]-1H-1,2,4-triazole]",< 1000,
"Nc1nc(Nc2ccccc2)nn1C(=O)c1ccc(N2CCOCC2)cc1 [compound 335, 5-amino-1-(4-(morpholin-4-yl)phenyl)carbonyl-3-(phenylamino)-1H-1,2,4-triazole]",> 20000,
"Nc1nc(Nc2ccccc2)nn1C(=O)c1cccc(N2CCOCC2)c1 [compound 336, 5-amino-1-(3-(morpholin-4-yl)phenyl)carbonyl-3-(phenylamino)-1H-1,2,4-triazole]",10000 to 20000,
"CC(C)(C)Oc1ccc(C(=O)n2nc(Nc3ccccc3)nc2N)cc1 [compound 341, 5-amino-1-(4-(tert-butoxy)phenyl)carbonyl-3-(phenylamino)-1H-1,2,4-triazole]",1000 to 10000,
"CC(C)(C)Oc1ccc(C(=O)n2nc(Nc3ccc(OCCN4CCCC4=O)cc3)nc2N)cc1 [compound 342, 5-amino-1-(4-(tert-butoxy)phenyl)carbonyl-3-[4-[2-(pyrrolidin-2-on-1-yl)ethoxy]phenylamino]-1H-1,2,4-triazole]",< 1000,
"COc1cc(Nc2nc(N)n(C(=O)c3ccc(N4CCOCC4)cc3)n2)ccc1OCCN1CCCC1 [compound 343, 5-amino-1-(4-(morpholin-4-yl)phenyl)carbonyl-3-[3-methoxy-4-[2-(pyrrolidin-1-yl)ethoxy]phenylamino]-1H-1,2,4-triazole]",< 1000,
"CC(C)(C)Oc1ccc(C(=O)n2nc(N)nc2NC2C3C=CC(C3)C2C(N)=O)cc1 (centres unmarked) [compound 345, 3-amino-1-(4-(tert-butoxy)phenyl)carbonyl-5-[(3-(aminocarbonyl)bicyclo[2.2.1]hept-5-en-2-yl)amino]-1H-1,2,4-triazole]",,IC50 [4]: > 20000 nM
"CC(C)(C)Oc1ccc(C(=O)n2nc(NC3C4C=CC(C4)C3C(N)=O)nc2N)cc1 (centres unmarked) [compound 346, 5-amino-1-(4-(tert-butoxy)phenyl)carbonyl-3-[(5-(aminocarbonyl)bicyclo[2.2.1]hept-2-en-6-yl)amino]-1H-1,2,4-triazole]",,"IC50 (Table 5, Hela cells, Axl antibody cross-linking stimulation, phospho-Akt chemiluminescence): > 20000 nM"
"CC(C)(C)Oc1cccc(C(=O)n2nc(N)nc2NC2C3C=CC(C3)C2C(N)=O)c1 (centres unmarked) [compound 347, 3-amino-1-(3-(tert-butoxy)phenyl)carbonyl-5-[(3-(aminocarbonyl)bicyclo[2.2.1]hept-5-en-2-yl)amino]-1H-1,2,4-triazole]",,IC50 [4]: > 20000 nM

# The next lines start with results.
IC50 [1] [nM],Structure (SMILES),also measured
< 1000,"COc1cc(Nc2nc(N)n(C(=O)c3ccc(C(C)(C)C)cc3)n2)ccc1OCCN1CCCC1 [compound 315, 5-amino-1-(4-(tert-butyl)phenyl)carbonyl-3-[3-methoxy-4-[2-(pyrrolidin-1-yl)ethoxy]phenylamino]-1H-1,2,4-triazole]",
< 1000,"COc1cc(Nc2nc(N)n(C(=O)c3ccc(OC(C)C)cc3)n2)ccc1OCCN1CCCC1 [compound 316, 5-amino-1-(4-(iso-propoxy)phenyl)carbonyl-3-[3-methoxy-4-[2-(pyrrolidin-1-yl)ethoxy]phenylamino]-1H-1,2,4-triazole]",
< 1000,"CC(C)(C)c1ccc(C(=O)n2nc(Nc3ccc(OCCN4CCCCCC4)cc3)nc2N)cc1 [compound 320, 5-amino-1-(4-(tert-butyl)phenyl)carbonyl-3-[4-[2-(azepan-1-yl)ethoxy]phenylamino]-1H-1,2,4-triazole]",
< 1000,"CC(C)Oc1ccc(C(=O)n2nc(Nc3ccc(OCCN4CCCCCC4)cc3)nc2N)cc1 [compound 321, 5-amino-1-(4-(iso-propoxy)phenyl)carbonyl-3-[4-[2-(azepan-1-yl)ethoxy]phenylamino]-1H-1,2,4-triazole]",
< 1000,"Nc1nc(Nc2ccc(OCCN3CCCCCC3)cc2)nn1C(=O)c1ccc(-c2csnn2)cc1 [compound 324, 5-amino-1-(4-(1,2,3-thiadiazol-4-yl)phenyl)carbonyl-3-[4-[2-(azepan-1-yl)ethoxy]phenylamino]-1H-1,2,4-triazole]",
< 1000,"Nc1nc(Nc2ccc(OCCN3CCCC3)cc2)nn1C(=O)c1ccc(OCCN2CCOCC2)cc1 [compound 332, 5-amino-1-[4-(2-(morpholin-4-yl)ethoxy)phenyl]carbonyl-3-[4-[2-(pyrrolidin-1-yl)ethoxy]phenylamino]-1H-1,2,4-triazole]",
1000 to 10000,"CC(C)Oc1ccc(C(=O)n2nc(Nc3ccccc3)nc2N)cc1 [compound 333, 5-amino-1-(4-(iso-propoxy)phenyl)carbonyl-3-(phenylamino)-1H-1,2,4-triazole]",
> 20000,"Nc1nc(Nc2ccccc2)nn1C(=O)c1ccc(-c2csnn2)cc1 [compound 334, 5-amino-1-(4-(1,2,3-thiadiazol-4-yl)phenyl)carbonyl-3-(phenylamino)-1H-1,2,4-triazole]",
< 1000,"CC(C)Oc1ccc(C(=O)n2nc(Nc3ccc(OCCN4CCCC4=O)cc3)nc2N)cc1 [compound 337, 5-amino-1-(4-(iso-propoxy)phenyl)carbonyl-3-[4-[2-(pyrrolidin-2-on-1-yl)ethoxy]phenylamino]-1H-1,2,4-triazole]",
1000 to 10000,"Nc1nc(Nc2ccc(OCCN3CCCC3=O)cc2)nn1C(=O)c1ccc(-c2csnn2)cc1 [compound 338, 5-amino-1-(4-(1,2,3-thiadiazol-4-yl)phenyl)carbonyl-3-[4-[2-(pyrrolidin-2-on-1-yl)ethoxy]phenylamino]-1H-1,2,4-triazole]",
1000 to 10000,"Nc1nc(Nc2ccc(OCCN3CCCC3=O)cc2)nn1C(=O)c1ccc(N2CCOCC2)cc1 [compound 339, 5-amino-1-(4-(morpholin-4-yl)phenyl)carbonyl-3-[4-[2-(pyrrolidin-2-on-1-yl)ethoxy]phenylamino]-1H-1,2,4-triazole]",
1000 to 10000,"Nc1nc(Nc2ccc(OCCN3CCCC3=O)cc2)nn1C(=O)c1cccc(N2CCOCC2)c1 [compound 340, 5-amino-1-(3-(morpholin-4-yl)phenyl)carbonyl-3-[4-[2-(pyrrolidin-2-on-1-yl)ethoxy]phenylamino]-1H-1,2,4-triazole]",
< 1000,"COc1cc(Nc2nc(N)n(C(=O)c3cccc(N4CCOCC4)c3)n2)ccc1OCCN1CCCC1 [compound 344, 5-amino-1-(3-(morpholin-4-yl)phenyl)carbonyl-3-[3-methoxy-4-[2-(pyrrolidin-1-yl)ethoxy]phenylamino]-1H-1,2,4-triazole]",
